Data published in patent US10670605B2, “Cysteine reactive probes and uses thereof” (The Scripps Research Institute, priority 2015, dated 2020).

Columns and labels:
Experiment in all cases: Competitive isoTOP-ABPP in situ (fragment-treated cells)
Assay type in all cases: cell-based
Conditions in all cases: 200 μM, insitu
[1] = molecular target: T1, cysteines in MDA-MB-231 and Ramos cells (Homo sapiens, UniProt P51946)
T1 sequence (P51946 1-323): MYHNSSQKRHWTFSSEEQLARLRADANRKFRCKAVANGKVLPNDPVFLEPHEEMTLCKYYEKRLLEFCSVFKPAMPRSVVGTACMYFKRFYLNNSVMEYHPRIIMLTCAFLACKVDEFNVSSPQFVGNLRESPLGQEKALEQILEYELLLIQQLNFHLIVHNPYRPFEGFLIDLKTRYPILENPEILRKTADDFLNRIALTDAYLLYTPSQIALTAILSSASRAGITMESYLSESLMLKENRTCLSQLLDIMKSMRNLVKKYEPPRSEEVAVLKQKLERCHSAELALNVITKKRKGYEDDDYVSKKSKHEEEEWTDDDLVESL

[2] = molecular target: T2, cysteines in MDA-MB-231 and Ramos cells (Homo sapiens, UniProt P49588)
T2 sequence (P49588 1-968): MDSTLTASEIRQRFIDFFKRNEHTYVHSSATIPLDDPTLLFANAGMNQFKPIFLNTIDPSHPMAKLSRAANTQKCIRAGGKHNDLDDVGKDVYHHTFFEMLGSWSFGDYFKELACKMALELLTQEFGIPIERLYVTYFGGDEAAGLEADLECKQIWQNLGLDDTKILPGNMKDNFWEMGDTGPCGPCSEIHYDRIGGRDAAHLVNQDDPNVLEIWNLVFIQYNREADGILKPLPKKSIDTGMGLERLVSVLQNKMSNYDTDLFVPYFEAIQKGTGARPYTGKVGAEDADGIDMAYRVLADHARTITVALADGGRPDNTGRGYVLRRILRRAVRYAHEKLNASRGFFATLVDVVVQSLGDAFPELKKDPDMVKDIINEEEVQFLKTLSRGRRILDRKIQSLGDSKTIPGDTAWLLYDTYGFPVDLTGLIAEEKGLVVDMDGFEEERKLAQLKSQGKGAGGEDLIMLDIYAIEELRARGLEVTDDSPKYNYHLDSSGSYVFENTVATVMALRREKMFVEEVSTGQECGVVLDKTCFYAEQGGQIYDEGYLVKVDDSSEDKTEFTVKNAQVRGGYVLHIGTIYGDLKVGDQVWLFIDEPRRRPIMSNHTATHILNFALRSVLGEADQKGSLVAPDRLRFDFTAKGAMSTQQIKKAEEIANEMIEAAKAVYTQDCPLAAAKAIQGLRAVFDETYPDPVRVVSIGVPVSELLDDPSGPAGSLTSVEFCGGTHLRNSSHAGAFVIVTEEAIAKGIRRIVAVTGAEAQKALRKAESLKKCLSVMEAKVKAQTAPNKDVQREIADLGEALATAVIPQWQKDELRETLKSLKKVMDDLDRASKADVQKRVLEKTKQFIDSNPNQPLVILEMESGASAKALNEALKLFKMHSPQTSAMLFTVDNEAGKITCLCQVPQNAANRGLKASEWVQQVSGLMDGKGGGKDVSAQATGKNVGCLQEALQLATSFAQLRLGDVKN

[3] = molecular target: T3, cysteines in MDA-MB-231 and Ramos cells (Homo sapiens, UniProt Q13162)
T3 sequence (Q13162 38-271): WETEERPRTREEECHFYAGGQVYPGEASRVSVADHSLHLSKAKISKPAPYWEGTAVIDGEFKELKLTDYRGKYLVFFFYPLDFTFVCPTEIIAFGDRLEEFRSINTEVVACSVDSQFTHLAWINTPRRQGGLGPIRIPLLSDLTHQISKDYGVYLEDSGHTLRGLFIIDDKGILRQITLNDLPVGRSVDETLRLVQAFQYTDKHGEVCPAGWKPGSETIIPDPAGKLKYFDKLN

[4] = molecular target: cysteines in MDA-MB-231 and Ramos cells (Homo sapiens, UniProt Q93009)
cysteines in MDA-MB-231 and Ramos cells (Homo sapiens, UniProt Q93009), sequence (Q93009 whole entry): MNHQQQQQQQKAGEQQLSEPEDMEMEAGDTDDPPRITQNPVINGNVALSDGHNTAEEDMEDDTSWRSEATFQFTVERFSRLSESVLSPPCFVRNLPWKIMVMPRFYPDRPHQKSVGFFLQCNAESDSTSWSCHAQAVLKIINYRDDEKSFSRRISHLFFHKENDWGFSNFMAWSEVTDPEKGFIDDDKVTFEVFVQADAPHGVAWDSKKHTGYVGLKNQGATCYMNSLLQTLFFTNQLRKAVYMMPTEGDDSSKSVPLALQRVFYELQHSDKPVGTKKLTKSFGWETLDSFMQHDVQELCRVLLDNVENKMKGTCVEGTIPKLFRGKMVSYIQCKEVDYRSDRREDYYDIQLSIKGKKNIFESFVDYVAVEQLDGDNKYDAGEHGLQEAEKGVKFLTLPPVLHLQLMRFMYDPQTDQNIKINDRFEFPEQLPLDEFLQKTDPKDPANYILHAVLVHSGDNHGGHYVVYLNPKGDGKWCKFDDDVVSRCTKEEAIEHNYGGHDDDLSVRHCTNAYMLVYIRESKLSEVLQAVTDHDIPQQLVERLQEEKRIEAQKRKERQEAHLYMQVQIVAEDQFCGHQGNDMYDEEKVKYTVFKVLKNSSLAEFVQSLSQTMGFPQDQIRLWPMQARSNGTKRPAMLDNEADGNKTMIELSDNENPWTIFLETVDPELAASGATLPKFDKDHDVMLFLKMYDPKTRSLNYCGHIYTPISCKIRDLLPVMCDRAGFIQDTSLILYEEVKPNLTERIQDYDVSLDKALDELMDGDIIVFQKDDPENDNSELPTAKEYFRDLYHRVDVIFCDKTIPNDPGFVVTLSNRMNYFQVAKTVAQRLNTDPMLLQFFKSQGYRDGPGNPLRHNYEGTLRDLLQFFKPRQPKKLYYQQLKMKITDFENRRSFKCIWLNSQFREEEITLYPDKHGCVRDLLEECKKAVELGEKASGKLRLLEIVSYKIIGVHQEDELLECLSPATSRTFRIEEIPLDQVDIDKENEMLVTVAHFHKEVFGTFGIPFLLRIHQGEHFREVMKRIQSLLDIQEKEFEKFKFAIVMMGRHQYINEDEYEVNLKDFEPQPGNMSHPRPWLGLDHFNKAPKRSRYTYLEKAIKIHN

[5] = molecular target: T4, cysteines in MDA-MB-231 and Ramos cells (Homo sapiens, UniProt Q15084)
T4 sequence (Q15084 20-440): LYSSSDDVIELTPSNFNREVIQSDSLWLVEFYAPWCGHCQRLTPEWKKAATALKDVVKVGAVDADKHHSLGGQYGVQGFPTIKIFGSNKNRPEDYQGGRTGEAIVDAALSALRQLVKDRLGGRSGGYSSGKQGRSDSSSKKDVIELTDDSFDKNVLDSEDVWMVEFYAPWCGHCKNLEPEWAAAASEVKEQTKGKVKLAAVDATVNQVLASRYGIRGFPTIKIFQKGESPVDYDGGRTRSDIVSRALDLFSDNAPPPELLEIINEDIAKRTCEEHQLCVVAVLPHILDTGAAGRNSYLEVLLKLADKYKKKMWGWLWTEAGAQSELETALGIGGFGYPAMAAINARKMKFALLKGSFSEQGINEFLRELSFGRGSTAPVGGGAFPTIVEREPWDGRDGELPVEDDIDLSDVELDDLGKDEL

[6] = molecular target: cysteines in MDA-MB-231 and Ramos cells (Homo sapiens, UniProt Q02252)
cysteines in MDA-MB-231 and Ramos cells (Homo sapiens, UniProt Q02252), sequence (Q02252 34-535): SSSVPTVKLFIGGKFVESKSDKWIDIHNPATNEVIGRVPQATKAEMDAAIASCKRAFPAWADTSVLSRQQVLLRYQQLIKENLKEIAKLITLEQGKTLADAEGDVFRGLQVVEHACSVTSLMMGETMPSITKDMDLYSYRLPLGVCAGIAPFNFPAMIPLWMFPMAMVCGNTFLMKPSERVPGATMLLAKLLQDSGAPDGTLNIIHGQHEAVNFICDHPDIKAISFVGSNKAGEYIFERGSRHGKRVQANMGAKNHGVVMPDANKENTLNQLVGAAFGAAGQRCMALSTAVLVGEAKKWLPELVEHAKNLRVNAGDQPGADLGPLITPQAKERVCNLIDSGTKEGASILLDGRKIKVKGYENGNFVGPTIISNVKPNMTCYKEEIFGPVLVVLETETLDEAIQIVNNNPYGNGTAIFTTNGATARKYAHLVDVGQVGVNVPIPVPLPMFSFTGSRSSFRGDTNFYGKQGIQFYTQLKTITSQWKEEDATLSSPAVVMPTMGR

[7] = molecular target: T5, cysteines in MDA-MB-231 and Ramos cells (Homo sapiens, UniProt Q9BRA2)
T5 sequence (Q9BRA2 1-123): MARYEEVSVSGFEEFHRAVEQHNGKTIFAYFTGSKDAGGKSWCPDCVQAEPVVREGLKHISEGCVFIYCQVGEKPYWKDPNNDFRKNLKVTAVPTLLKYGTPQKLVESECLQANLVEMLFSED

[8] = molecular target: T6, cysteines in MDA-MB-231 and Ramos cells (Homo sapiens, UniProt Q9NRG0)
T6 sequence (Q9NRG0 1-131): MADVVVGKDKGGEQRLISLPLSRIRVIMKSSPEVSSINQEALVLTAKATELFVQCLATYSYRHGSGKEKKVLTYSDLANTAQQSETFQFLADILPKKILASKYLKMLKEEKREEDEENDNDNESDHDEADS

isoTOP-ABPP ratio P51946_C244 [1]; 231	isoTOP-ABPP ratio P49588_C773 [2]; 231	isoTOP-ABPP ratio Q13162_C51 [3]; 231	isoTOP-ABPP ratio Q93009_C223 [4]; 231	isoTOP-ABPP ratio Q15084_C55 [5]; 231	isoTOP-ABPP ratio Q02252_C317 [6]; 231	isoTOP-ABPP ratio Q9BRA2_C43 [7]; 231	isoTOP-ABPP ratio, Q15084_C190 [5]; 231	isoTOP-ABPP ratio Q9NRG0_C55 [8]; 231	isoTOP-ABPP ratio P51946_C244 ([1]; ramos)	isoTOP-ABPP ratio P49588_C773 ([2]; ramos)	isoTOP-ABPP ratio Q93009_C223 ([4]; ramos)	isoTOP-ABPP ratio Q15084_C55 ([5]; ramos)	isoTOP-ABPP ratio, Q15084_C190 ([5]; ramos)	isoTOP-ABPP ratio Q02252_C317 ([6]; ramos)	isoTOP-ABPP ratio Q9NRG0_C55 ([8]; ramos)	isoTOP-ABPP ratio Q9BRA2_C43 ([7]; ramos)	isoTOP-ABPP ratio Q13162_C51 ([3]; ramos)	SMILES
1.4	1.1	1.7	1.8	0.9	1.5	16.0												O=C(CCl)NC12CC3CC(CC(C3)C1)C2 [compound 21]
1.1	0.6	0.9	1.1	1.2	2.0	20.0	1.0	0.9										CC(C)CCOCCNC(=O)CCl [compound 27]
			1.0	1.4	1.1													COc1ccccc1OCCNC(=O)CCl [compound 28]
									1.1	1.1	1.0	1.0	1.0	1.2	1.5	2.3		O=C(CCl)N1CCN(CC(=O)N2CCOCC2)CC1 [compound 29]
				0.7		0.6	1.0			1.2					1.6		1.3	C=CC(=O)N(Cc1cccnc1)c1cc(C(F)(F)F)cc(C(F)(F)F)c1 [compound 31]
1.0	0.7	2.4	0,8	0.8	2.4	1.1	1.0	1.0										C=CC(=O)Nc1cc(F)c(N2CCN(C(=O)OC(C)(C)C)CC2)c(F)c1 [compound 38]
1.2	0.7			0.9	0.8	0.6	0.9	0.9										Cc1ccc(C=C(C#N)C(=O)NCCN2CCOCC2)cc1 [compound 41]
2.4	10.1	2.3	20.0	2.0	2.6	8.0	2.8	20.0										CC1CCc2ccccc2N1C(=O)CCl (centres unmarked) [compound 45]
0.7			1.0	5.0				1.1										O=C(CCl)Nc1cccc2ncccc12 [compound 51]
